Measurements from US20260022142A1, “MACROCYCLIC IMMUNOMODULATORS” (Bristol-Myers Squibb Company, priority 2022, published 2026).
Numbered stars: 1 amine (or outer) side, 2 acyl side, 3 side chain; on linkers, the order of the positions; unused ones are H or OH. Bridge positions count the residues as written; N and C are the ends. Square brackets hold non-standard residues; d marks the D form. Peptide text beside a SMILES is read from it. * marks the point of attachment. ξ: configuration not given here. Phe(4-COOH) = N[C@@H](Cc1ccc(C(=O)O)cc1)C(=O)O; Bip = N[C@@H](Cc1ccc(-c2ccccc2)cc1)C(=O)O; Phe(4-NH2) = Nc1ccc(C[C@H](N)C(=O)O)cc1; Phe(3-Me) = Cc1cccc(C[C@H](N)C(=O)O)c1; Val(3-OH) = CC(C)(O)[C@H](N)C(=O)O; 4Pal = N[C@@H](Cc1ccncc1)C(=O)O; X1 = O=C(CN1CCN([*:1])CC1)[*:2]; Cha = N[C@@H](CC1CCCCC1)C(=O)O; Cit = NC(=O)NCCC[C@H](N)C(=O)O; Ile(3ξ) = CCC(C)[C@H](N)C(=O)O; Thr(3ξ) = CC(O)[C@H](N)C(=O)O; 12Ado = NCCCCCCCCCCCC(=O)O; dNle = CCCC[C@@H](N)C(=O)O; dDab = NCC[C@@H](N)C(=O)O; Carboxymethyl = O=C(O)C*; Orn = NCCC[C@H](N)C(=O)O; Aun = NCCCCCCCCCCC(=O)O; Dab = NCC[C@H](N)C(=O)O; Dap = NC[C@H](N)C(=O)O; AEEA = NCCOCCOCC(=O)O

molecular target: T1, PD-1/PD-L1 interaction (PE-labeled human PD-L1-Ig binding to Jurkat cell line over-expressing human PD-1) (Homo sapiens, UniProt Q15116); assay: Jurkat-PD-1 Cell Binding High-Content Screening Assay (CBA); format: cell-based; conditions: Jurkat cell line over-expressing human PD-1; PE-labeled PD-L1-Ig 20 nM final; read-out: Jurkat hPD1-PDL1 IC50
T1 construct: expressed in transfected cells; host or cells: Jurkat
Summary of the method: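 Read-out is high-content imaging of cell-bound phycoerythrin-tagged PD-L1-Ig on fixed, Hoechst-counterstained Jurkat cells that over-express human PD-1. Compound exposure lasts 2 h at 37° C before the labeled ligand (20 nM final) is added for a further hour.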

T1 sequence (Q15116 25-288): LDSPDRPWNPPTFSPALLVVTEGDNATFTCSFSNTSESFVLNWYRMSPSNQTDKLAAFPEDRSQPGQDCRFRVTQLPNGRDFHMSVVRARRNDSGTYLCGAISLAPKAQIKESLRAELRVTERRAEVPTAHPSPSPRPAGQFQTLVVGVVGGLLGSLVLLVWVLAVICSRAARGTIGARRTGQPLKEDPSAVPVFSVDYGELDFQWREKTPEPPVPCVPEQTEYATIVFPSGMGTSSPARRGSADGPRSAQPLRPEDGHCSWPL

| IC50 [nM] | SMILES |
| --- | --- |
| 38.9 | CC(C)C[C@H]1NC(=O)[C@H](CCCN)NC(=O)[C@H](C(C)C)NC(=O)[C@H](Cc2ccc(-c3ccccc3)cc2)NC(=O)[C@H](C(C)C)NC(=O)[C@H](Cc2c[nH]c3ccccc23)NC(=O)[C@H](CC(=O)O)NC(=O)[C@H](Cc2ccc(OCC(=O)O)cc2)NC(=O)[C@H](CN)NC(=O)CSC[C@@H](C(=O)N[C@@H](C)C(=O)N[C@@H](CCCCN)C(=O)NCCCCCCCCCCC(=O)O)NC(=O)[C@H]([C@@H](C)O)NC(=O)[C@H](C(C)C)NC(=O)[C@H](CC2CCCCC2)NC(=O)[C@H](Cc2cnc[nH]2)NC1=O [Compound 1090] ({CH2CO}-[Dap]Y(Carboxymethyl)DWV[Bip]V[Orn][dL]H[Cha]VTCAK[Aun]-OH; thioether N-14) |
| 12 | CCCC[C@H]1NC(=O)[C@H](CCCN)NC(=O)[C@H](C(C)C)NC(=O)[C@H](Cc2ccc(-c3ccccc3)cc2)NC(=O)[C@H](C(C)C)NC(=O)[C@H](Cc2cccc(C)c2)NC(=O)[C@H](CC(=O)O)NC(=O)[C@H](Cc2ccc(OCC(=O)O)cc2)NC(=O)[C@H](CN)NC(=O)CSC[C@@H](C(=O)NCCOCCOCC(=O)N[C@@H](CCN)C(=O)NCCCCCCCCCCC(=O)O)NC(=O)[C@H](CN)NC(=O)[C@H](C(C)C)NC(=O)[C@H](CC2CCCCC2)NC(=O)[C@H](CCN)NC1=O [Compound 2674] ({CH2CO}-[Dap]Y(Carboxymethyl)D[Phe(3-Me)]V[Bip]V[Orn][dNle][Dab][Cha]V[Dap]C[AEEA][Dab][Aun]-OH; thioether N-14) |
| 18.4 | Cc1cccc(C[C@@H]2NC(=O)[C@H](CC(=O)O)NC(=O)[C@H](Cc3ccc(OCC(=O)O)cc3)NC(=O)[C@H](C(C)O)NC(=O)CSC[C@@H](C(=O)N[C@@H](CCN)C(=O)NCCCCCCCCCCC(=O)O)NC(=O)[C@H](C(C)O)NC(=O)[C@H](C(C)C)NC(=O)[C@H](CC3CCCCC3)NC(=O)[C@H](CCN)NC(=O)[C@@H](CC(C)C)NC(=O)[C@H](CCCNC(=N)N)NC(=O)[C@H](CCCNC(N)=O)NC(=O)[C@H](Cc3ccc(-c4ccccc4)cc3)NC(=O)[C@H](C(C)C)NC2=O)c1 (stereo partly drawn) [Compound 3554] ({CH2CO}-[Thr(3ξ)]Y(Carboxymethyl)D[Phe(3-Me)]V[Bip][Cit]R[dL][Dab][Cha]V[Thr(3ξ)]C[Dab][Aun]-OH; thioether N-14) |
| 38 | CC(=O)Nc1ccc(C[C@@H]2NC(=O)[C@H](Cc3cccc(C)c3)NC(=O)[C@H](CC(=O)O)NC(=O)[C@H](Cc3ccc(OCC(=O)O)cc3)NC(=O)[C@H](CN)NC(=O)CSC[C@@H](C(=O)N[C@@H](CCN)C(=O)NCCCCCCCCCCC(=O)O)NC(=O)[C@H](C(C)O)NC(=O)[C@H](C(C)C)NC(=O)[C@H](CC3CCCCC3)NC(=O)[C@H](CCN)NC(=O)[C@@H](CC(C)C)NC(=O)[C@H](CCCN)NC(=O)[C@H](Cc3ccc(NC(C)=O)cc3)NC(=O)[C@H](Cc3ccc(-c4ccccc4)cc3)NC2=O)cc1 (stereo partly drawn) [Compound 3601] ({CH2CO}-[Dap]Y(Carboxymethyl)D[Phe(3-Me)][Phe(4-NH2)](Ac)[Bip][Phe(4-NH2)](Ac)[Orn][dL][Dab][Cha]V[Thr(3ξ)]C[Dab][Aun]-OH; thioether N-14) |
| 16.4 | Cc1cccc(C[C@@H]2NC(=O)[C@H](CC(=O)O)NC(=O)[C@H](Cc3ccc(OCC(=O)O)cc3)NC(=O)[C@H](C(C)O)NC(=O)CSC[C@@H](C(=O)NCCOCCOCC(=O)NCCCCCCCCCCC(=O)O)NC(=O)[C@H](C(C)O)NC(=O)[C@H](C(C)C)NC(=O)[C@H](CC3CCCCC3)NC(=O)[C@H](CCN)NC(=O)[C@@H](CC(C)C)NC(=O)[C@H](CCN)NC(=O)[C@H](C(C)C)NC(=O)[C@H](Cc3ccc(-c4ccccc4)cc3)NC(=O)[C@H](C(C)C)NC2=O)c1 (stereo partly drawn) [Compound 3442] ({CH2CO}-[Thr(3ξ)]Y(Carboxymethyl)D[Phe(3-Me)]V[Bip]V[Dab][dL][Dab][Cha]V[Thr(3ξ)]C[AEEA][Aun]-OH; thioether N-14) |
| 19.9 | Cc1cccc(C[C@@H]2NC(=O)[C@H](CC(=O)O)NC(=O)[C@H](Cc3ccc(OCC(=O)O)cc3)NC(=O)[C@H](CN)NC(=O)CSC[C@@H](C(=O)N[C@@H](CCN)C(=O)NCCOCCOCC(=O)NCCCCCCCCCCC(=O)O)NC(=O)[C@H](CCC(=O)O)NC(=O)[C@H](C(C)C)NC(=O)[C@H](Cc3cccc(C)c3)NC(=O)[C@H](CCN)NC(=O)[C@@H](CC(C)C)NC(=O)[C@H](CCCN)NC(=O)[C@H](Cc3ccc(OCC(=O)O)cc3)NC(=O)[C@H](Cc3ccc(-c4ccccc4)cc3)NC(=O)[C@H](Cc3ccc(C(=O)O)cc3)NC2=O)c1 [Compound 1271] ({CH2CO}-[Dap]Y(Carboxymethyl)D[Phe(3-Me)][Phe(4-COOH)][Bip]Y(Carboxymethyl)[Orn][dL][Dab][Phe(3-Me)]VEC[Dab][AEEA][Aun]-OH; thioether N-14) |
| 19.3 | Cc1cccc(C[C@@H]2NC(=O)[C@H](CC(=O)O)NC(=O)[C@H](Cc3ccc(OCC(=O)O)cc3)NC(=O)[C@H](CN)NC(=O)CSC[C@@H](C(=O)N[C@@H](CCCN)C(=O)NCCCCCCCCCCCC(=O)O)NC(=O)[C@H](C(C)O)NC(=O)[C@H](C(C)C)NC(=O)[C@H](CC3CCCCC3)NC(=O)[C@H](CCN)NC(=O)[C@@H](CC(C)C)NC(=O)[C@H](CCCN)NC(=O)[C@H](CCCNC(N)=O)NC(=O)[C@H](Cc3ccc(-c4ccccc4)cc3)NC(=O)[C@H](C(C)C)NC2=O)c1 (stereo partly drawn) [Compound 3122] ({CH2CO}-[Dap]Y(Carboxymethyl)D[Phe(3-Me)]V[Bip][Cit][Orn][dL][Dab][Cha]V[Thr(3ξ)]C[Orn][12Ado]-OH; thioether N-14) |
| 40.5 | CCC(C)[C@@H]1NC(=O)[C@H](Cc2ccc(-c3ccccc3)cc2)NC(=O)[C@H](Cc2ccc(C(=O)O)cc2)NC(=O)[C@H](Cc2cccc(C)c2)NC(=O)[C@H](CC(=O)O)NC(=O)[C@H](Cc2ccc(C(=O)O)cc2)NC(=O)[C@H](Cc2ccncc2)NC(=O)CSC[C@@H](C(=O)N[C@H](CCN)C(=O)NCCOCCOCC(=O)NCCCCCCCCCCC(=O)O)NC(=O)[C@H](CCC(=O)O)NC(=O)[C@H](C(C)(C)O)NC(=O)[C@H](CC2CCCCC2)NC(=O)[C@H](CCN)NC(=O)[C@@H](CC(C)C)NC(=O)[C@H](Cc2cnc[nH]2)NC1=O (stereo partly drawn) [Compound 3739] ({CH2CO}-[4Pal][Phe(4-COOH)]D[Phe(3-Me)][Phe(4-COOH)][Bip][Ile(3ξ)]H[dL][Dab][Cha][Val(3-OH)]EC[dDab][AEEA][Aun]-OH; thioether N-14) |
| 171 | CC(C)C[C@@H]1NC(=O)[C@H](Cc2c[nH]c3ccccc23)NC(=O)[C@H](CC(=O)O)NC(=O)[C@H](Cc2ccncc2)NC(=O)[C@H](Cc2ccc(OCC(=O)O)cc2)NC(=O)CSC[C@@H](C(=O)N2CCN(CC(=O)NCCCCCCCCCCC(=O)O)CC2)NC(=O)[C@H](C(C)O)NC(=O)[C@H](C(C)C)NC(=O)[C@H](CC2CCCCC2)NC(=O)[C@H](CCN)NC(=O)[C@@H](CC(C)C)NC(=O)[C@H](CCCN)NC(=O)[C@H](C(C)C)NC(=O)[C@H](Cc2ccc(-c3ccccc3)cc2)NC1=O (stereo partly drawn) [Compound 1225] ({CH2CO}-Y(Carboxymethyl)[4Pal]DWL[Bip]V[Orn][dL][Dab][Cha]V[Thr(3ξ)]C[X1][Aun]-OH; thioether N-14) |
